# Results reported in patent publication US11780830B2, “Triazolone derivatives or salts thereof and pharmaceutical compositions comprising the same” (YUHAN CORPORATION, priority 2018, dated 2023).
# Where a name gives a salt, the structure may show the parent alone.
# Columns and labels:
# Type in all cases: biochemical
# [1] = molecular target: T1, recombinant human DAO (diamine oxidase) (Homo sapiens, UniProt P19801); assay: Activity on recombinant human DAO, method similar to the VAP-1 assay; conditions: substrate 1 mM putrescine; read-out: Inhibitory Activity (IC50, nM) DAO
# T1 construct: purchased R&D systems
# T1 sequence (P19801 20-751): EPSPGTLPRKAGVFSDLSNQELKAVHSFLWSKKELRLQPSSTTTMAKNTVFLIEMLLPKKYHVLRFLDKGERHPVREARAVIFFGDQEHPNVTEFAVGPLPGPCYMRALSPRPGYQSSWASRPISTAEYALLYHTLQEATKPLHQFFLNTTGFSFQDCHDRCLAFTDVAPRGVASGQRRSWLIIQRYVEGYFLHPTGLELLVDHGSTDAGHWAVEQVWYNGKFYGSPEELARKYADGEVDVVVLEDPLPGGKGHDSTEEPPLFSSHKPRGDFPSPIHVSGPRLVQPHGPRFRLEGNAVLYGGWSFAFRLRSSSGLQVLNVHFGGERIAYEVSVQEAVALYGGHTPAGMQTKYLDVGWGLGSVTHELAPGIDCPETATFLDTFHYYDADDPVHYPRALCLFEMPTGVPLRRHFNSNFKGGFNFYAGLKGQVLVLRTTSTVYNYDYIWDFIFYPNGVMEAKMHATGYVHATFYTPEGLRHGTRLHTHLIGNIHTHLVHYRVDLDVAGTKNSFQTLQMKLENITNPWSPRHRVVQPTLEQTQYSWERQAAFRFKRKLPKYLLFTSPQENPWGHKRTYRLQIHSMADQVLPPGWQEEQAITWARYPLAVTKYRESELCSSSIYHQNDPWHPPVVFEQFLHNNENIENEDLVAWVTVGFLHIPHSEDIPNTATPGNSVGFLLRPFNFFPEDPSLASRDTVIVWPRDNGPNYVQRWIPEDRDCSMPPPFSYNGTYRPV
# Summary of the method: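 Inhibition of recombinant human diamine oxidase (DAO, R&D systems) was assessed by the same approach as the VAP-1 assay, using 1 mM putrescine as substrate. Hydrogen peroxide formed was detected through an HRP-coupled Amplex Red reaction yielding fluorescent resorufin, read at 544 nm excitation and 590 nm emission. IC50 values came from four-parameter logistic fitting in GraphPad Prism.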
# [2] = molecular target: T2, recombinant human MAO-A (monoamine oxidase-A) (Homo sapiens, UniProt P21397); assay: Activity on recombinant human MAO-A, method similar to the VAP-1 assay; conditions: substrate 0.5 mM tyramine; read-out: Inhibitory Activity (IC50, nM) MAO-A
# T2 construct: purchased Sigma-Aldrich
# T2 sequence (P21397 1-527): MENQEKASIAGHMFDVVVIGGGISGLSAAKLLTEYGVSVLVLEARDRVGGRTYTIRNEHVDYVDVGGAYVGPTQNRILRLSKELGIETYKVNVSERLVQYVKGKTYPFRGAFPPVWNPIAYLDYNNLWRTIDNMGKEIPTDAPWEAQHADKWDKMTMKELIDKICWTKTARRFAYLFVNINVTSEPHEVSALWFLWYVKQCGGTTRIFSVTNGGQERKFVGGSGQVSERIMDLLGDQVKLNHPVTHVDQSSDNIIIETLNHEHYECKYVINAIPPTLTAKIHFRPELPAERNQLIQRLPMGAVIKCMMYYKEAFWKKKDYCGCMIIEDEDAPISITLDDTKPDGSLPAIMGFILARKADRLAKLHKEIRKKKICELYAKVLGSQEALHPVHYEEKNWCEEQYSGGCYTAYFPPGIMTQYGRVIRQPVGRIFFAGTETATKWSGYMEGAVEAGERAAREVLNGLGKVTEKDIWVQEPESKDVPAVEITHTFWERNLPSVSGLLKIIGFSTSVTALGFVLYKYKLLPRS
# Summary of the method: (§1)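 Enzyme in pH 7.4 phosphate buffer; 30 min, 37° C with compound (DMSO <1%); start with 200 uM Amplex Red + 1 U/mL HRP + tyramine 0.5 mM (MAO-A) or benzylamine 1 mM (MAO-B); kinetic read ex 544/em 590, 1-2 h; % rate decrease vs DMSO control → IC50, 4-parameter fit.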
# [3] = molecular target: T3, recombinant human VAP-1 (Homo sapiens, UniProt Q16853); assay: Activity on recombinant human VAP-1, HRP-coupled Amplex Red hydrogen peroxide assay; conditions: substrate 1 mM benzylamine; compound incubated with enzyme at 37° C. for 30 minutes; pH 7.4; read-out: Inhibitory Activity (IC50, nM) human VAP-1
# T3 construct: purchased R&D systems
# T3 sequence (Q16853 1-763): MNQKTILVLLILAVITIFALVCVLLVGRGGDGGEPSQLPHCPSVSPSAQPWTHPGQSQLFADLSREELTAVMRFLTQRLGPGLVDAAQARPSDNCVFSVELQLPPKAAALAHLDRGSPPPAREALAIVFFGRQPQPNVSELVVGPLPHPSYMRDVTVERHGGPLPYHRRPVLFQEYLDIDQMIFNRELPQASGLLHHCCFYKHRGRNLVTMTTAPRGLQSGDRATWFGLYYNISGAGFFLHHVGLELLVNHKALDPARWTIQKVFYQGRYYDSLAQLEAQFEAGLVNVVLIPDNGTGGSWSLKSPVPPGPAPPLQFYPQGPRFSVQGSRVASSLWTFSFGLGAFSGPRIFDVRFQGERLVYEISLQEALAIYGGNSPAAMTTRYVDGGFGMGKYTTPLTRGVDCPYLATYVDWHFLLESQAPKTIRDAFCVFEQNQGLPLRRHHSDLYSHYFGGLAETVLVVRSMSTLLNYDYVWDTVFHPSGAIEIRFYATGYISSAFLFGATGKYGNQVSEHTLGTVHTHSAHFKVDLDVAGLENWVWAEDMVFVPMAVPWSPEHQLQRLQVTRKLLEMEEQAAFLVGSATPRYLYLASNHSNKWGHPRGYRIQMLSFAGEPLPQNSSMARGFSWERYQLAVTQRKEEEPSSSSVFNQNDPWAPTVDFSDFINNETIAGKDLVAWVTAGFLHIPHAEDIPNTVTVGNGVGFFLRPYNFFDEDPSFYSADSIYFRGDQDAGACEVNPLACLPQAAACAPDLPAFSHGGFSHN
# Summary of the method: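 Enzyme in 50 mM sodium phosphate (pH 7.4) is exposed to test compound for 30 min at 37 °C. Benzylamine (1 mM) with HRP and Amplex Red then starts the reaction, and the fluorescence rate, relative to a DMSO-only control, gives IC50.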
# [4] = molecular target: T4, recombinant human MAO-B (monoamine oxidase-B) (Homo sapiens, UniProt P27338); assay: Activity on recombinant human MAO-B, method similar to the VAP-1 assay; conditions: substrate 1 mM benzylamine; read-out: Inhibitory Activity (IC50, nM) MAO-B
# T4 construct: purchased Sigma-Aldrich
# T4 sequence (P27338 1-520): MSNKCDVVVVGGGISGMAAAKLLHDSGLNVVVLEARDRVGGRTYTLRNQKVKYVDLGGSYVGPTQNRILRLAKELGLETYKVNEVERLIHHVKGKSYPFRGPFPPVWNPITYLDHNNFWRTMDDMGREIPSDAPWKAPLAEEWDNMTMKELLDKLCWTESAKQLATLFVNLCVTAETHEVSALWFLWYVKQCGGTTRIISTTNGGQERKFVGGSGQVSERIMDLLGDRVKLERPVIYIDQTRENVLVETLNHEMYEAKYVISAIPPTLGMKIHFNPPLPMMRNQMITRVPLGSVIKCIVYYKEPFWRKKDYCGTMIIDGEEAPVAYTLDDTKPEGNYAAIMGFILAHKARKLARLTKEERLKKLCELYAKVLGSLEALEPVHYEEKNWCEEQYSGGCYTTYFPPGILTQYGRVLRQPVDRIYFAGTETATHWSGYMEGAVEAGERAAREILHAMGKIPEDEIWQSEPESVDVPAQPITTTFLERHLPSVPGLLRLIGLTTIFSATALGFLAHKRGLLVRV
# Summary of the method: as §1
Compound,IC50 [1],IC50 [2],IC50 [3],IC50 [4]
"NC/C(=C\F)Cn1ncn(Cc2ccc(-c3ccc4c(c3)CCCN4)s2)c1=O [Example 110, 2-[(2E)-2-(aminomethyl)-3-fluoroprop-2-en-1-yl]-4-[5-(1,2,3,4-tetrahydroquinolin-6-yl)thiophen-2-yl]methyl-2,4-dihydro-3H-1,2,4-triazol-3-one hydrochloride]",220 nM,32000 nM,0.9 nM,370 nM
"NC/C(=C\F)Cn1ncn(Cc2ccc(-c3cnc4c(c3)CCCN4)s2)c1=O [Example 111, 2-[(E)-2-(aminomethyl)-3-fluoro-allyl]-4-[[5-(5,6,7,8-tetrahydro-1,8-naphthyridin-3-yl)-2-thienyl]methyl]-1,2,4-triazol-3-one]",530 nM,> 100000 nM,0.6 nM,5900 nM
"CNc1ncc2cc(-c3ccc(Cn4cnn(C/C(=C/F)CN)c4=O)s3)ccc2n1 [Example 112, 2-[(2E)-2-(aminomethyl)-3-fluoroprop-2-en-1-yl]-4-(5-[2-(methylamino)quinazolin-6-yl]thiophen-2-ylmethyl)-2,4-dihydro-3H-1,2,4-triazol-3-one hydrochloride]",310 nM,> 100000 nM,0.9 nM,950 nM
"NC/C(=C\F)Cn1ncn(Cc2ccc(-c3cccc4ncccc34)s2)c1=O [Example 113, 2-[(2E)-2-(aminomethyl)-3-fluoroprop-2-en-1-yl]-4-[5-(quinolin-5-yl)thiophen-2-yl]methyl-2,4-dihydro-3H-1,2,4-triazol-3-one hydrochloride]",340 nM,> 100000 nM,0.8 nM,160 nM
"NC/C(=C\F)Cn1ncn(Cc2ccc(-c3cccc4cnccc34)s2)c1=O [Example 114, 2-[(2E)-2-(aminomethyl)-3-fluoroprop-2-en-1-yl]-4-[5-(isoquinolin-5-yl)thiophen-2-yl]methyl-2,4-dihydro-3H-1,2,4-triazol-3-one hydrochloride]",110 nM,143000 nM,0.3 nM,23 nM
"NC/C(=C\F)Cn1ncn(Cc2ccc(-c3c[nH]c4ncccc34)s2)c1=O [Example 115, 2-[(2E)-2-(aminomethyl)-3-fluoroprop-2-en-1-yl]-4-[5-(1H-pyrrolo[2,3-b]pyridin-3-yl)thiophen-2-yl]methyl-2,4-dihydro-3H-1,2,4-triazol-3-one hydrochloride]",860 nM,> 100000 nM,0.7 nM,120 nM
"NC/C(=C\F)Cn1ncn(Cc2ccc(/C=C/c3ccc(O)cc3)s2)c1=O [Example 116, 2-[(2E)-2-(aminomethyl)-3-fluoroprop-2-en-1-yl]-4-(5-[(E)-2-(4-hydroxyphenyl)ethenyl]thiophen-2-ylmethyl)-2,4-dihydro-3H-1,2,4-triazol-3-one hydrochloride]",1700 nM,4400 nM,0.6 nM,180 nM
"NC/C(=C\F)Cn1ncn(Cc2ccc(/C=C/c3ccc(F)cc3)s2)c1=O [Example 117, 2-[(2E)-2-(aminomethyl)-3-fluoroprop-2-en-1-yl]-4-(5-[(E)-2-(4-fluorophenyl)ethenyl]thiophen-2-ylmethyl)-2,4-dihydro-3H-1,2,4-triazol-3-one hydrochloride]",1200 nM,93000 nM,1.3 nM,270 nM
"NC/C(=C\F)Cn1ncn(Cc2ccc(/C=C/c3cccc(F)c3)s2)c1=O [Example 118, 2-[(2E)-2-(aminomethyl)-3-fluoroprop-2-en-1-yl]-4-(5-[(E)-2-(3-fluorophenyl)ethenyl]thiophen-2-ylmethyl)-2,4-dihydro-3H-1,2,4-triazol-3-one hydrochloride]",560 nM,140000 nM,1.1 nM,58 nM
"NC/C(=C\F)Cn1ncn(Cc2ccc(/C=C/c3ccc(C(F)(F)F)cc3)s2)c1=O [Example 119, 2-[(E)-2-(aminomethyl)-3-fluoro-allyl]-4-[[5-[(E)-2-[4-(trifluoromethyl)phenyl]vinyl]-2-thienyl]methyl]-1,2,4-triazol-3-one hydrochloride]",860 nM,> 100000 nM,1.8 nM,1200 nM
"CN(C)c1ccc(/C=C/c2ccc(Cn3cnn(C/C(=C/F)CN)c3=O)s2)cc1 [Example 120, 2-[(E)-2-(aminomethyl)-3-fluoro-allyl]-4-[[5-[2-[4-(dimethylamino)phenyl]vinyl]-2-thienyl]methyl]-1,2,4-triazol-3-one]",1100 nM,16000 nM,6.2 nM,340 nM
"NC/C(=C\F)Cn1ncn(Cc2ccc(/C=C/c3ccsc3)s2)c1=O [Example 121, 2-[(E)-2-(aminomethyl)-3-fluoro-allyl]-4-[[5-[(E)-2-(3-thienyl)vinyl]-2-thienyl]methyl]-1,2,4-triazol-3-one hydrochloride]",1800 nM,> 100000 nM,1.2 nM,290 nM
